Data from US9113629B2, “4-amino-6-(4-substituted-phenyl)-picolinates and 6-amino-2-(4-substituted-phenyl)-pyrimidine-4-carboxylates and their use as herbicides” (DOW AGROSCIENCES LLC, priority 2013, dated 2015).
Where two headings read alike, the source gives them in different places.

How the values were obtained:
[1] = test system: Key Grass and Sedge Weeds as well as Grass Crops; experiment: Post-emergent Test II herbicidal activity (Table 6); format: in vivo; conditions: post-emergence, 336 h; for pest or weed control at 70 g/ha: 70 g ai/ha; for pest or weed control at 140 g/ha: 140 g ai/ha
Procedure, shortened: (§1)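 Greenhouse post-emergent assay: seedlings (first/second true leaf) in Metro-Mix 360 were sprayed at 187 L/ha at a top rate plus twofold dilutions down to 1/16×; solvent-blank controls were included. Percent visual injury was read at 14 d.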

[2] = test system: Key Broadleaf Weed and Crop Species; experiment: Post-emergent Test II herbicidal activity (Table 5); format: in vivo; conditions: post-emergence, 336 h, 14 days after application; for pest or weed control at 70 g/ha: application rate 70 g ai/ha; for pest or weed control at 140 g/ha: application rate 140 g ai/ha
Procedure, shortened: as §1

[3] = CYPES: yellow nutsedge (Cyperus esculentus), read-out: Visual Growth Reduction (%) 14 Days After Application, CYPES
[4] = DIGSA: crabgrass (Digitaria sanguinalis), read-out: Visual Growth Reduction (%) 14 Days After Application, DIGSA
[5] = ECHCG: barnyardgrass (Echinochloa crus-galli), read-out: Visual Growth Reduction (%) 14 Days After Application, ECHCG
[6] = ORYSA: rice (Oryza sativa), crop, read-out: Visual Growth Reduction (%) 14 Days After Application, ORYSA
[7] = SETFA: giant foxtail (Setaria faberi), read-out: Visual Growth Reduction (%) 14 Days After Application, SETFA
[8] = SORVU: grain sorghum (Sorghum vulgare), read-out: Visual Growth Reduction (%) 14 Days After Application, SORVU
[9] = TRZSS (wheat, Triticum aestivum), crop, read-out: Visual Growth Reduction (%) 14 Days After Application, TRZSS
[10] = ZEAMX: maize, corn (Zea mays), crop, read-out: Visual Growth Reduction (%) 14 Days After Application, ZEAMX
[11] = ABUTH: velvetleaf (Abutilon theophrasti), read-out: Visual Growth Reduction (%) 14 Days After Application, ABUTH
[12] = AMARE: redroot pigweed (Amaranthus retroflexus), read-out: Visual Growth Reduction (%) 14 Days After Application, AMARE
[13] = BRSNN: oilseed-rape, canola (Brassica napus), read-out: Visual Growth Reduction (%) 14 Days After Application, BRSNN
[14] = CHEAL: lambsquarters (Chenopodium album), read-out: Visual Growth Reduction (%) 14 Days After Application, CHEAL
[15] = EPHHL: wild poinsettia (Euphorbia heterophylla), read-out: Visual Growth Reduction (%) 14 Days After Application, EPHHL
[16] = HELAN: sunflower (Helianthus annuus), read-out: Visual Growth Reduction (%) 14 Days After Application, HELAN
[17] = VIOTR: wild pansy (Viola tricolor), read-out: Visual Growth Reduction (%) 14 Days After Application, VIOTR

COC(=O)c1nc(-c2ccccc2F)c(F)c(N)c1Cl [Compound 206]
0 to 29%: pest or weed control at 70 g/ha [1, 3] | pest or weed control at 140 g/ha [1, 3] | pest or weed control at 70 g/ha [1, 4] | pest or weed control at 140 g/ha [1, 4] | pest or weed control at 70 g/ha [1, 5] | pest or weed control at 140 g/ha [1, 5] | pest or weed control at 70 g/ha [1, 6] | pest or weed control at 140 g/ha [1, 6] | pest or weed control at 70 g/ha [1, 7] | pest or weed control at 140 g/ha [1, 7] | pest or weed control at 70 g/ha [1, 8] | pest or weed control at 140 g/ha [1, 8] | pest or weed control at 70 g/ha [1, 9] | pest or weed control at 140 g/ha [1, 9] | pest or weed control at 70 g/ha [1, 10] | pest or weed control at 140 g/ha [1, 10]
85 to 94%: pest or weed control at 140 g/ha [2, 13] | pest or weed control at 70 g/ha [2, 14] | pest or weed control at 140 g/ha [2, 14] | pest or weed control at 140 g/ha [2, 16]
60 to 74%: pest or weed control at 70 g/ha [2, 16] | pest or weed control at 140 g/ha [2, 17]
45 to 59%: pest or weed control at 70 g/ha [2, 17]
95 to 100%: pest or weed control at 70 g/ha [2, 11] | pest or weed control at 140 g/ha [2, 11] | pest or weed control at 70 g/ha [2, 12] | pest or weed control at 140 g/ha [2, 12] | pest or weed control at 70 g/ha [2, 15] | pest or weed control at 140 g/ha [2, 15]
75 to 84%: pest or weed control at 70 g/ha [2, 13]

COC(=O)c1nc(-c2ccc(C(F)F)cc2)c(F)c(N)c1Cl [Compound 209]
85 to 94%: pest or weed control at 70 g/ha [1, 3] | pest or weed control at 140 g/ha [1, 3] | pest or weed control at 140 g/ha [1, 10] | pest or weed control at 70 g/ha [2, 13] | pest or weed control at 140 g/ha [2, 13]
0 to 29%: pest or weed control at 70 g/ha [1, 6] | pest or weed control at 140 g/ha [1, 6] | pest or weed control at 70 g/ha [1, 9] | pest or weed control at 140 g/ha [1, 9] | pest or weed control at 70 g/ha [2, 17] | pest or weed control at 140 g/ha [2, 17]
60 to 74%: pest or weed control at 140 g/ha [1, 4]
95 to 100%: pest or weed control at 70 g/ha [1, 5] | pest or weed control at 140 g/ha [1, 5] | pest or weed control at 70 g/ha [1, 8] | pest or weed control at 140 g/ha [1, 8] | pest or weed control at 70 g/ha [2, 11] | pest or weed control at 140 g/ha [2, 11] | pest or weed control at 70 g/ha [2, 12] | pest or weed control at 140 g/ha [2, 12] | pest or weed control at 70 g/ha [2, 14] | pest or weed control at 140 g/ha [2, 14] | pest or weed control at 70 g/ha [2, 15] | pest or weed control at 140 g/ha [2, 15] | pest or weed control at 70 g/ha [2, 16] | pest or weed control at 140 g/ha [2, 16]
45 to 59%: pest or weed control at 70 g/ha [1, 4] | pest or weed control at 70 g/ha [1, 7]
75 to 84%: pest or weed control at 140 g/ha [1, 7] | pest or weed control at 70 g/ha [1, 10]

C=Cc1c(C(=O)O)nc(-c2ccc(Cl)c(F)c2)c(F)c1N [Compound 214]
0 to 29%: pest or weed control at 70 g/ha [1, 4] | pest or weed control at 140 g/ha [1, 4] | pest or weed control at 70 g/ha [1, 6] | pest or weed control at 70 g/ha [1, 7] | pest or weed control at 70 g/ha [1, 9] | pest or weed control at 140 g/ha [1, 9]
75 to 84%: pest or weed control at 70 g/ha [1, 8] | pest or weed control at 70 g/ha [2, 17] | pest or weed control at 140 g/ha [2, 17]
45 to 59%: pest or weed control at 140 g/ha [1, 6]
85 to 94%: pest or weed control at 140 g/ha [1, 8] | pest or weed control at 70 g/ha [1, 10] | pest or weed control at 140 g/ha [1, 10]
95 to 100%: pest or weed control at 70 g/ha [1, 3] | pest or weed control at 140 g/ha [1, 3] | pest or weed control at 70 g/ha [1, 5] | pest or weed control at 140 g/ha [1, 5] | pest or weed control at 70 g/ha [2, 11] | pest or weed control at 140 g/ha [2, 11] | pest or weed control at 70 g/ha [2, 12] | pest or weed control at 140 g/ha [2, 12] | pest or weed control at 70 g/ha [2, 13] | pest or weed control at 140 g/ha [2, 13] | pest or weed control at 70 g/ha [2, 14] | pest or weed control at 140 g/ha [2, 14] | pest or weed control at 70 g/ha [2, 15] | pest or weed control at 140 g/ha [2, 15] | pest or weed control at 70 g/ha [2, 16] | pest or weed control at 140 g/ha [2, 16]
30 to 44%: pest or weed control at 140 g/ha [1, 7]
